Measured values taken from patent US20220110888A1, “COMPOSITION FOR THE TREATMENT OF PSORIASIS” (Charlotte's Web, Inc., priority 2020, published 2022).

Assay: Systemic exposure to CBD after dermal application

C=C(C)[C@@H]1CCC(C)=C[C@H]1c1c(O)cc(CCCCC)cc1O [CBD, cannabidiol]
reach of the bloodstream / systemic circulation: does not reach the bloodstream
